Measurements reported in US20250313539A1, “Alpha, Beta-UNSATURATED AMIDE COMPOUND, AND PREPARATION METHOD THEREFOR, AND PHARMACEUTICAL COMPOSITION AND USE THEREOF” (SHANGHAI INSTITUTE OF MATERIA MEDICA, CHINESE ACADEMY OF …, priority 2022, published 2025).
Where “and” joins values, the source holds several entries; their conditions need not be identical. Equal values may be shown once. Read-outs that look alike come from different tables or passages of the source. Blank lines part the entries; values can stand above or below the compound they belong to.

Tests used:
[1] = system: cerebral blood flow in mice; assay: laser speckle test blood flow model, improvement of cerebral blood flow in mice; format: in vivo; conditions: injected intraperitoneally, within 60 minutes after administration vs before; for change in vivo at 20 mg/kg: dose of 20 mg/kg
Source text: We used a laser speckle test blood flow model to test the activity of compounds in improving cerebral blood flow in mice. The principle is to measure the intensity changes of flowing blood through laser speckle technology, reflecting real-time cerebral blood flow; By comparing the changes in blood flow before and after administration in mice, the effect of compounds on improving blood flow can be detected.
The experimental mice were anesthetized for 30 seconds and fixed on a rack. After waiting for 2 minutes for the baseline light intensity data to stabilize, the brain blood flow light intensity data of the mice were recorded for 10 minutes without administration. Subsequently, the test compound was injected intraperitoneally and the cerebral blood flow and light intensity data of mice were recorded within 60 minutes after administration. Comparing the changes in light intensity before and after administration can reveal the degree of changes in cerebral blood flow in mice.
Through the laser speckle model mentioned above, we conducted preliminary tests on the activity of the compound in improving cerebral blood flow in mice. In this experiment, ferulic acid (FA) was used as a positive control. Multiple compounds have shown significant improvement effects on cerebral blood flow in this model. At a dose of 5 mg/kg, compound 9 can increase cerebral blood flow in mice by about 10%, and compound 16 can increase it by about 20%. At a dose of 20 mg/kg, compounds 30 and 59 increased mouse cerebral blood flow by about 10%, compounds 5, 6, 26, 28, 29, 35, 43, and 58 all increased mouse cerebral blood flow by about 20%, compounds 16, 57, and 86 increased mouse cerebral blood flow by about 30%, compounds 27, 84, and 104 increased it by about 40%, and compound 83 increased mouse cerebral blood flow by 50% to 60%. Overall, the patented compound has good development prospects.

[2] = pharmacokinetic parameters in mice (plasma, LC-MS/MS); format: in vivo, Male ICR (CD-1) mice; conditions: male, ICR (CD-1), mouse; for MRT inf: read-out: MRT0-∞; for bioavailability: read-out: F (oral bioavailability)
Protocol: Male ICR (CD-1) mice were divided into two groups, with three mice in each group. […] intravenously injected with 5 mg/kg of the test substance, blood was collected before administration, and 0.25 h, 0.5 h, 1 h, 2 h, 4 h, 8 h, and 24 hours after administration, respectively, and centrifuged immediately to obtain plasma, and the drug concentration in the plasma was determined using liquid chromatography tandem mass spectrometry.

[3] = drug concentration in brain tissue, plasma and CSF after oral administration in mice; format: in vivo
Source text: Compound 27 has good brain tissue drug distribution after oral administration in mice, with a B/P of approximately 0.7.

[4] = Mus musculus, ip, 1 h, read-out: increase of cerebral blood flow in mice
[5] = PO 20 mg/kg, 15 min, individual animals 13-15
[6] = PO 20 mg/kg, 30 min, individual animals 16-18

Structure (SMILES): O=C(/C=C/c1ccccc1C(F)(F)F)N1C(=O)OC[C@H]1c1ccccc1 [Example 28, (R, E)-3-(3-(2-trifluoromethylphenyl)acryloyl)-4-phenyloxazolidin-2-one]
change in vivo at 20 mg/kg [1, 4]: ~20%

Structure (SMILES): O=C(/C=C/c1cccc(OC(F)(F)F)c1)N1C(=O)OC[C@@H]1c1ccccc1 [Example 29, (S, E)-4-phenyl-3-(3-(3-(trifluoromethoxy)phenyl)acryloyl) oxazolidin-2-one]
change in vivo at 20 mg/kg [1, 4]: ~20%

Structure (SMILES): O=C(/C=C/c1ccccc1C(F)(F)F)N1C(=O)OCC1c1ccccc1 (stereo not drawn) [Example 26, (E)-3-(3-(2-trifluoromethylphenyl)acryloyl)-4-phenyloxazolidin-2-one]
change in vivo at 20 mg/kg [1, 4]: ~20%

Structure (SMILES): [2H]C1([2H])OC(=O)N(C(=O)/C=C/c2cccc(-c3ccccc3)c2)[C@H]1c1ccccc1 [Example 86, (S, E)-3-(3-([1,1′-biphenyl]-3-yl)acryloyl)-4-phenyloxazolidin-2-one-5,5-d2]
change in vivo at 20 mg/kg [1, 4]: ~30%

Structure (SMILES): COc1ccc(/C=C/C(=O)N2CCOC2=O)cc1 [Example 6, (E)-3-(3-(4-methoxyphenyl)acryloyl)oxazolidin-2-one]
change in vivo at 20 mg/kg [1, 4]: ~20%

Structure (SMILES): O=C(/C=C/c1ccc(C(F)(F)F)cc1)N1CCOC1=O [Example 9]
increase of cerebral blood flow in mice ([1]; dose of 5 mg/kg): about 10%

Structure (SMILES): O=C(/C=C/c1ccccc1C(F)(F)F)N1C(=O)OC[C@@H]1Cc1ccccc1 [Example 58, (S, E)-4-benzyl-3-(3-(2-trifluoromethylphenyl)acryloyl)oxazolidin-2-one]
change in vivo at 20 mg/kg [1, 4]: ~20%

Structure (SMILES): O=C(/C=C/c1cccc(-c2ccccc2)c1)N1C(=O)OC[C@@H]1c1ccccc1 [Example 35, (S, E)-3-(3-([1,1′-biphenyl]-3-yl)acryloyl)-4-phenyloxazolidin-2-one]
change in vivo at 20 mg/kg [1, 4]: ~20%

Structure (SMILES): COc1cccc(/C=C/C(=O)N2CCOC2=O)c1 [Example 5, (E)-3-(3-(3-methoxyphenyl)acryloyl)oxazolidin-2-one]
change in vivo at 20 mg/kg [1, 4]: ~20%

Structure (SMILES): [2H]C1([2H])OC(=O)N(C(=O)/C=C/c2ccccc2OC(F)(F)F)[C@H]1c1ccccc1 [Example 84, (S, E)-4-phenyl-3-(3-(2-trifluoromethoxyphenyl)acryloyl) oxazolidin-2-one-5,5-d2]
change in vivo at 20 mg/kg [1, 4]: ~40%

Structure (SMILES): O=C(/C=C/c1cccc(Oc2ccccc2)c1)N1CCOC1=O [Example 16, (E)-3-(3-(3-phenoxyphenyl)acryloyl)oxazolidin-2-one]
change in vivo at 5 mg/kg ([1]; Mus musculus, ip, 1 h, dose of 5 mg/kg, read-out: increase of cerebral blood flow in mice): ~20%
change in vivo at 20 mg/kg [1, 4]: ~30%

Structure (SMILES): O=C(/C=C/c1ccccc1C(F)(F)F)N1C(=O)OC[C@H]1Cc1ccccc1 [Example 59, (R, E)-4-benzyl-3-(3-(2-trifluoromethylphenyl)acryloyl)oxazolidin-2-one]
change in vivo at 20 mg/kg [1, 4]: ~10%

Structure (SMILES): O=C(/C=C/c1ccccc1C(F)(F)F)N1C(=O)OCC1Cc1ccccc1 (stereo not drawn) [Example 57, (E)-4-benzyl-3-(3-(2-trifluoromethylphenyl)acryloyl)oxazolidin-2-one]
change in vivo at 20 mg/kg [1, 4]: ~30%

Structure (SMILES): O=C(/C=C/c1ccc(F)cc1C(F)(F)F)N1C(=O)OC[C@@H]1c1ccccc1 [Example 43, (S, E)-3-(3-(4-fluoro-2-(trifluoromethyl)phenyl)acryloyl)-4-phenyloxazolidin-2-one]
change in vivo at 20 mg/kg [1, 4]: ~20%

AUC(0-inf) ([2]; iv-5 mg/kg): 2200 ng·h/mL
AUC(0-t) ([2]; iv-5 mg/kg): 2170 ng·h/mL
clearance ([2]; iv-5 mg/kg): 37.8 mL/min/kg
half-life ([2]; iv-5 mg/kg): 1.56 h
MRT inf ([2]; iv-5 mg/kg): 1.21 h
AUC(0-inf) ([2]; po-10 mg/kg): 767 ng·h/mL
AUC(0-t) ([2]; po-10 mg/kg): 757 ng·h/mL
Cmax ([2]; po-10 mg/kg): 116 ng/mL
Tmax ([2]; po-10 mg/kg): 1 h
half-life ([2]; po-10 mg/kg): 4.08 h
bioavailability ([2]; po-10 mg/kg vs iv-5 mg/kg): 17.4%
MRT inf ([2]; po-10 mg/kg): 5.61 h
Structure (SMILES): [2H]C1([2H])OC(=O)N(C(=O)/C=C/c2ccccc2C(F)(F)F)[C@H]1c1ccccc1 [Example 83, (S, E)-4-phenyl-3-(3-(2-trifluoromethylphenyl)acryloyl)oxazolidin-2-one-5,5-d2]
change in vivo at 20 mg/kg [1, 4]: 50 to 60%

Structure (SMILES): O=C(/C=C/c1ccccc1OC(F)(F)F)N1C(=O)OC[C@@H]1c1ccccc1 [Example 30, (S, E)-4-phenyl-3-(3-(2-(trifluoromethoxy)phenyl)acryloyl) oxazolidin-2-one]
change in vivo at 20 mg/kg [1, 4]: ~10%

Structure (SMILES): [2H]C1([2H])OC(=O)N(C(=O)/C=C/c2ccccc2C(F)(F)F)C1Cc1ccccc1 (stereo not drawn) [Example 104, (E)-4-benzyl-3-(3-(2-trifluoromethylphenyl)acryloyl)oxazolidin-2-one-5,5-d2]
change in vivo at 20 mg/kg [1, 4]: ~40%

concentration at 15 min ([3]; ICR (CD-1), mouse, brain, po, 20 mg/kg, PO 20 mg/kg, 15 min, mean, read-out: Brain): 50.9 ng/g
concentration at 30 min ([3]; ICR (CD-1), mouse, brain, po, 20 mg/kg, PO 20 mg/kg, 30 min, mean, read-out: Brain): 43.7 ng/g
Kp at 15 min ([3]; ICR (CD-1), mouse, brain/heart plasma, po, 20 mg/kg, PO 20 mg/kg, 15 min, individual animals 13-15, read-out: Brain/H. Plasma): 0.7
Kp at 15 min ([3]; ICR (CD-1), mouse, brain/heart plasma, po, 20 mg/kg, PO 20 mg/kg, 15 min, mean, read-out: Brain/H. Plasma): 0.7
Kp at 30 min ([3]; ICR (CD-1), mouse, brain/heart plasma, po, 20 mg/kg, PO 20 mg/kg, 30 min, mean, read-out: Brain/H. Plasma): 0.7
Kp at 15 min ([3]; ICR (CD-1), mouse, brain/plasma, po, 20 mg/kg, after oral administration in mice, read-out: B/P (brain tissue drug distribution)): ~0.7
concentration at 15 min ([3]; ICR (CD-1), mouse, heart plasma, po, 20 mg/kg, PO 20 mg/kg, 15 min, mean, read-out: Heart Plasma): 70.4 ng/mL
concentration at 30 min ([3]; ICR (CD-1), mouse, heart plasma, po, 20 mg/kg, PO 20 mg/kg, 30 min, mean, read-out: Heart Plasma): 61.9 ng/mL
concentration at 15 min ([3]; ICR (CD-1), mouse, po, 20 mg/kg, PO 20 mg/kg, 15 min, mean, read-out: CSF): 3.8 ng/mL
concentration at 30 min ([3]; ICR (CD-1), mouse, po, 20 mg/kg, PO 20 mg/kg, 30 min, mean, read-out: CSF): 3.2 ng/mL
concentration at 15 min ([3]; ICR (CD-1), mouse, portal vein plasma, po, 20 mg/kg, PO 20 mg/kg, 15 min, individual animals 13-15, read-out: Portal Vein Plasma): 320 ng/mL
concentration at 15 min ([3]; ICR (CD-1), mouse, portal vein plasma, po, 20 mg/kg, PO 20 mg/kg, 15 min, mean, read-out: Portal Vein Plasma): 371 ng/mL
concentration at 30 min ([3]; ICR (CD-1), mouse, portal vein plasma, po, 20 mg/kg, PO 20 mg/kg, 30 min, mean, read-out: Portal Vein Plasma): 373 ng/mL
Brain [3, 5]: 29.4 ng/g and 75.4 ng/g and 47.9 ng/g
Brain/H. Plasma [3, 5]: 0.65 and 0.91
CSF [3, 5]: 1.63 ng/mL and 8.37 ng/mL and 1.40 ng/mL
Heart Plasma [3, 5]: 41.9 ng/mL and 117 ng/mL and 52.7 ng/mL
Portal Vein Plasma [3, 5]: 375 ng/mL and 418 ng/mL
Brain [3, 6]: 19.4 ng/g and 38.8 ng/g and 44.3 ng/g
Brain/H. Plasma [3, 6]: 0.56 and 1.37 and 0.49
Heart Plasma [3, 6]: 34.2 ng/mL and 28.2 ng/mL and 89.5 ng/mL
Portal Vein Plasma [3, 6]: 252 ng/mL and 171 ng/mL and 704 ng/mL
AUC(0-inf) ([2]; iv-5 mg/kg): 805 ng·h/mL
AUC(0-t) ([2]; iv-5 mg/kg): 790 ng·h/mL
clearance ([2]; iv-5 mg/kg): 104 mL/min/kg
half-life ([2]; iv-5 mg/kg): 2.08 h
MRT inf ([2]; iv-5 mg/kg): 1.04 h
AUC(0-inf) ([2]; po-20 mg/kg): 650 ng·h/mL
AUC(0-t) ([2]; po-20 mg/kg): 465 ng·h/mL
Cmax ([2]; po-20 mg/kg): 104 ng/mL
Tmax ([2]; po-20 mg/kg): 1 h
half-life ([2]; po-20 mg/kg): 4.01 h
bioavailability ([2]; po-20 mg/kg vs iv-5 mg/kg): 14.7%
MRT inf ([2]; po-20 mg/kg): 6.12 h
Structure (SMILES): O=C(/C=C/c1ccccc1C(F)(F)F)N1C(=O)OC[C@@H]1c1ccccc1 [Example 27, (S, E)-3-(3-(2-trifluoromethylphenyl)acryloyl)-4-phenyloxazolidin-2-one]
change in vivo at 20 mg/kg [1, 4]: ~40%
CSF [3, 6]: 0.670 ng/mL and 0.770 ng/mL and 5.94 ng/mL
